Experimental data taken from paper PMC5412315, “Wedelolactone Acts as Proteasome Inhibitor in Breast Cancer Cells” (International Journal of Molecular Sciences, 2017).

What was measured:
[1] = target: T1, proteasome in MDA-MB-231 cells (Homo sapiens, UniProt P28074); experiment: Proteasome activity in cell extracts of treated MDA-MB-231 cells (fluorogenic substrates); assay type: cell-based; conditions: MDA-MB-231 cells treated 10 h, cell extract, Suc-LLVY-AMC; read-out: IC50, chymotrypsin-like activity of proteasome
T1 construct: endogenous in cells; host or cells: MDA-MB-231, MDA-MB-468 or T47D cells (treated 10 h, then lysed)
T1 sequence (P28074 60-263): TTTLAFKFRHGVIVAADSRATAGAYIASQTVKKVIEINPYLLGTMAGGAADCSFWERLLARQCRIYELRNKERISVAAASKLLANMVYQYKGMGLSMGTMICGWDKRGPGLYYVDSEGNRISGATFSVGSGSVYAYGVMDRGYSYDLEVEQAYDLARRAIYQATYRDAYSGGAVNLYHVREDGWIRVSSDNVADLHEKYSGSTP
T1 sequence (P28072 1-239 partner): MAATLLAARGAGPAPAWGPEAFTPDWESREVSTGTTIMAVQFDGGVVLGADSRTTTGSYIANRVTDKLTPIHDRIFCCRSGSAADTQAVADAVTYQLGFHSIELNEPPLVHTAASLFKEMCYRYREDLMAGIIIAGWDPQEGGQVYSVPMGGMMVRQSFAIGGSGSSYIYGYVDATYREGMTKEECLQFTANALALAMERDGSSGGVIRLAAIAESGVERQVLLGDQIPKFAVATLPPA
T1 sequence (Q99436 44-277 partner): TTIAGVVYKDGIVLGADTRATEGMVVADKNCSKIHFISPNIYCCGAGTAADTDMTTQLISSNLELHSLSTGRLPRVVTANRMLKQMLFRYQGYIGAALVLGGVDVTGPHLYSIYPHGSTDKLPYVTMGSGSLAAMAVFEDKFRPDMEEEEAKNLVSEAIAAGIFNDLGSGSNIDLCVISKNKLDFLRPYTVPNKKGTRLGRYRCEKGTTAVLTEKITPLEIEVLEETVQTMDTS
Description: (§1) Figure 1 Wedelolactone inhibits chymotrypsin-like, trypsin-like and caspase-like activities in breast cancer cells. MDA-MB-231 (A); MDA-MB-468 (B); and T47D (C) cells were treated with various concentrations of wedelolactone (w) for 10 h. Proteasome activities were evaluated in cell extracts using the activity-specific fluorogenic substrates (Suc-LLVY-AMC for testing chymotrypsin-like, Z-LLE-AMC for caspase-like, and Boc-LRR-AMC for trypsin-like activities). Treatment with MG132 served as a positive control. The data represent the mean values from three independent experiments. Error bars indicate the SD. * indicates a significant (p < 0.05) difference between wedelolactone-/MG132- and DMSO-treated cells.
(§2) MDA-MB-231, MDA-MB-468 and T47D (6 × 10^5) cells were seeded in 5 mL of culture media, exposed to various concentrations of wedelolactone, DMSO or 10 μM MG132 for 10 h. Cells were harvested, resuspended in cell lysis buffer (40 mM Tris, pH 7.2, 50 mM NaCl, 2 mM β-mercaptoethanol, 2 mM ATP, 5 mM MgCl, 10% Glycerol) and briefly sonicated using an Ultrasonic Processor UP100H (Hielscher, Ringwood, NJ, USA). Cell lysates were cleared by centrifugation and protein concentration in supernatant was determined using DC protein assay (Biorad, Hercules, CA, USA). […] Fluorescence was measured by TECAN infinite 200 plate reader (TECAN) for 1 h at 37 °C.

[2] = target: T2, proteasome in MDA-MB-468 cells (Homo sapiens, UniProt P28074); experiment: Proteasome activity in cell extracts of treated MDA-MB-468 cells (fluorogenic substrates); assay type: cell-based; conditions: MDA-MB-468 cells treated 10 h, cell extract, Suc-LLVY-AMC; read-out: IC50, chymotrypsin-like activity of proteasome
T2 construct: endogenous in cells; host or cells: MDA-MB-231, MDA-MB-468 or T47D cells (treated 10 h, then lysed)
T2 sequence (P28074 60-263): T1 sequence (P28074 60-263)
T2 sequence (P28072 1-239 partner): T1 sequence (P28072 1-239 partner)
T2 sequence (Q99436 44-277 partner): T1 sequence (Q99436 44-277 partner)
Description: as §1, §2

proteasome in T47D cells = target: T3, proteasome in T47D cells (Homo sapiens, UniProt P28074); experiment: Proteasome activity in cell extracts of treated T47D cells (fluorogenic substrates); assay type: cell-based; conditions: T47D cells treated 10 h, cell extract, Suc-LLVY-AMC; read-out: IC50, chymotrypsin-like activity of proteasome
T3 construct: endogenous in cells; host or cells: MDA-MB-231, MDA-MB-468 or T47D cells (treated 10 h, then lysed)
T3 sequence (P28074 60-263): T1 sequence (P28074 60-263)
T3 sequence (P28072 1-239 partner): T1 sequence (P28072 1-239 partner)
T3 sequence (Q99436 44-277 partner): T1 sequence (Q99436 44-277 partner)
Description: as §1, §2

[3] = target: T4, 26S proteasome purified from MDA-MB-231 cells (Homo sapiens, UniProt P28074); experiment: Proteasome activity in vitro, purified 26S proteasome; assay type: biochemical; conditions: Suc-LLVY-AMC, 1 h, read-out: IC50, chymotrypsin-like activity
T4 construct: Human 26S proteasome was purified from 8 × 10^6 of MDA-MB-231 cells; endogenous in cells; host or cells: MDA-MB-231 cells; purified with The Rapid 26S Proteasome Purification Kit (J4310, UBPBio)
Description: (§3) Figure 2 Wedelolactone inhibits chymotrypsin-like, trypsin-like, and caspase-like activities of purified 26S and 20S proteasome complexes in vitro. Wedelolactone (w) was added at various concentrations to reaction mixture containing either (A) 26S proteasome purified from MDA-MB-231 cells or (B) commercially available 20S proteasome, and fluorogenic substrate (Suc-LLVY-AMC for testing chymotrypsin-like, Z-LLE-AMC for caspase-like, and Boc-LRR-AMC for trypsin-like activities). Fluorescence was measured after 1 h incubation. MG132 was used as a positive control. The data represent the mean values from three independent experiments. Error bars indicate the SD. * indicates a significant (p < 0.05) difference in proteolytic activities between reaction mixtures containing wedelolactone/MG132 and DMSO.
Human 26S proteasome was purified from 8 × 10^6 of MDA-MB-231 cells using The Rapid 26S Proteasome Purification Kit (J4310, UBPBio) according to manufacturer’s instructions.
(§4) Chymotrypsin-like, trypsin-like and caspase-like proteasome activities were determined using Proteasome Activity Fluorometric Assay Kit II (J4120, UBPBio) according to manufacturer’s instructions. […] Fluorescence was measured by TECAN infinite 200 plate reader (TECAN, Mannedorf, Switzerland) for 1 h at 37 °C.

bovine 20S proteasome = target: T5, bovine 20S proteasome (Bos taurus, UniProt Q32KL2); experiment: Proteasome activity in vitro, commercially available 20S proteasome; assay type: biochemical; conditions: Suc-LLVY-AMC, 1 h, read-out: IC50, chymotrypsin-like activity
T5 construct: purchased UBPBio A1400
Description: as §3, §4

[4] = target: T6, proteasome in breast cancer cells (MDA-MB-231, MDA-MB-468, T47D) (Homo sapiens, UniProt P28072+P28074+Q99436); experiment: Proteasome activity in breast cancer cell lines (statements on all three lines); assay type: cell-based; conditions: 10 h, cell extracts
T6 construct: endogenous in cells; host or cells: MDA-MB-231, MDA-MB-468 and T47D cells; in A12 transiently transfected with hCTR1-N-Myc, with or without copper loading, while the proteasome itself stays endogenous
T6 sequence (P28074 60-263): T1 sequence (P28074 60-263)
T6 sequence (P28072 1-239): T1 sequence (P28072 1-239 partner)
T6 sequence (Q99436 44-277): T1 sequence (Q99436 44-277 partner)
Description: as §1, §2

[5] = tested on: purified 26S and 20S proteasome complexes; experiment: Proteasome activity in vitro (statements on purified 26S and 20S together); assay type: biochemical
Description: as §3, §4

[6] = tested on: p21, p27, p53, Bax and multiubiquitinated proteins in MDA-MB-231, MDA-MB-468 and T47D cells; experiment: Immunoblotting of polyubiquitinated and short-lived proteins; assay type: cell-based, human; conditions: 10 h, all three cell lines
Description: (§5) Figure 3 Multiubiquitinated and high turnover proteins accumulate in wedelolactone-treated breast cancer cells. MDA-MB-231, MDA-MB-468, and T47D cells were treated with various concentrations of wedelolactone or solvent for 10 h. (A) Protein extracts were subsequently analyzed by SDS-PAGE and immunoblotting using p21-, p27-, p53-, Bax-, and ubiquitin-specific antibodies. Treatment with MG132 served as a positive control; (B) Transcripts of CDKN1A, CDKN1B, TP53 and BAX genes were quantified using qPCR.
5 × 10^5 cells were seeded in 6-well plates. The next day, the cells were exposed to various concentrations of wedelolactone, DMSO, or 10 μM MG132 for 10 h. Cells were harvested and lysed as described previously. Cell lysates were subjected to SDS–PAGE and immunoblotted. Sample loading was normalized according to protein concentration determined by DC protein assay (Biorad). Blots were probed with anti-ubiquitin (3933S; Cell Signaling Technology, Inc., Beverly, MA, USA), anti-p21, anti-p27 (sc-817 and sc-528; Santa Cruz Biotechnology Inc., Santa Cruz, CA, USA), anti-p53, anti-Bax or anti-Myc-Tag (9282, 5023 and 2276S; Cell Signaling Technology), anti-α-tubulin antibodies (T9026; Sigma-Aldrich), and secondary antibodies conjugated with peroxidase (Sigma-Aldrich). […]

[7] = tested on: CDKN1A, CDKN1B, TP53 and BAX genes in MDA-MB-231, MDA-MB-468 and T47D cells; experiment: qPCR of CDKN1A, CDKN1B, TP53 and BAX transcripts; assay type: cell-based, human; conditions: 10 h, all three cell lines
Description: as §5
1 × 10^6 cells were seeded in 5 mL dishes. Next day, the cells were exposed to various concentrations of wedelolactone or DMSO for 10 h. Cells were harvested and total RNA was isolated using GenElute Mammalian Total RNA Miniprep kit (Sigma-Aldrich). For cDNA synthesis, 1 μg of total RNA was reverse-transcribed using the QuantiTect Reverse Transcription kit (Qiagen, Hilden, Germany) according to the manufacturer’s instructions in a final reaction volume of 20 μL. Expression of CDKN1A, CDKN1B, TP53 and BAX genes was determined using the target-specific primers (Table S1) and KAPA SYBR FAST qPCR MASTER MIX (KK460, Kapa Biosystems, Cambridge, MA, USA) on LightCycler 480 II (Roche, Basel, Switzerland). Expression of the reference GAPDH gene (probe 4326317E, ThermoFisher Scientific, Waltham, MA, USA) was used for data normalization.

[8] = tested on: MDA-MB-231, MDA-MB-468 and T47D cells over-expressing CTR1; experiment: Cell mortality by PI exclusion assay (flow-cytometry) in copper-loaded vs control cells; assay type: cell-based, human; conditions: 48 h, CTR1 overexpression with/without 25 μM copper sulfate pretreatment 24 h
Description: (§6) Figure 4 Copper loading enhances cytotoxicity and ROS production in wedelolactone-treated breast cancer cells. MDA-MB-231, MDA-MB-468, and T47D cells were transiently transfected with pCNDA3.1-hCTR1-N-Myc (CTR1) or control pCDNA3.1 plasmids (cmv), pretreated with copper sulfate (Cu) for 24 h and subsequently treated with wedelolactone (w) or solvent (DMSO) in fresh media. (A) Cells were harvested and expression of exogenous CTR1 protein was confirmed by SDS-PAGE followed by immunoblotting with the Myc-Tag antibody; (B) Relative copper concentration in cell lysates was analyzed by SALD ICP MS. Data for copper are presented as an integrated ^63Cu/^60Ni signal ratio. (C) Cell mortality and (D) ROS production were evaluated after PI/DHE staining using flow-cytometry. The data represent the mean values from three independent experiments. Error bars indicate the SD. * indicates a significant (p < 0.05) difference.
3 × 10^5 cells were seeded in 6-well plates. After 24 h, transient transfection was performed, using 3 μL of Lipofectamine LTX reagent (Invitrogen) with a mixture containing 1.5 μg of pCNDA3.1-hCTR1-N-Myc or control pCDNA3.1 plasmid and 1.5 μL of PLUS reagent (Invitrogen). […] Cytotoxicity of wedelolactone was analyzed 48 h later by PI staining (1 μg/mL) using flow-cytometry as described previously.

[9] = tested on: MDA-MB-231, MDA-MB-468 and T47D cells over-expressing CTR1; experiment: ROS production by DHE staining (flow-cytometry) in copper-loaded vs control cells; assay type: cell-based, human; conditions: 10 h, CTR1 overexpression with/without 25 μM copper sulfate pretreatment 24 h
Description: as §6
3 × 10^5 cells were seeded in 6-well plates. After 24 h, transient transfection was performed as described in chapter 4.6. […] Reactive oxygen species (ROS) were measured using flow-cytometry (BD FACSVerse, BD Biosciences, Franklin Lakes, NJ, USA) at an excitation wavelength of 485 nm and an emission wavelength of 538 nm. Data were analyzed using BD FACSuite software (BD Biosciences).

breast cancer cell lines = tested on: breast cancer cell lines; set-up: method as in PMID 21315506, PMID 22733624; conditions: all three breast cancer cell lines, at concentrations corresponding to the IC50 values; cited from earlier work

COc1cc(O)c2c(c1)oc(=O)c1c3cc(O)c(O)cc3oc21 [Wedelolactone]
IC50 [1]: 27.8 µM | IC50 [2]: 12.8 µM | IC50 (proteasome in T47D cells): 19.5 µM | IC50 [3]: 9.97 µM | IC50 (bovine 20S proteasome): 6.13 µM | Inhibition of chymotrypsin-like, trypsin-like and caspase-like activities of proteasome in cells [4]: inhibited all three proteolytic activities of proteasome | Inhibition of chymotrypsin-like, trypsin-like and caspase-like activities in vitro ([5]; purified 26S and 20S proteasome, 1 h): inhibited all three proteasomal activities in vitro in a dose-dependent manner | IC50 ([5]; summary over purified 26S and 20S proteasome, read-out: IC50 values for chymotrypsin-like inhibitory activity, in vitro): < 10 µM | Level of p21, p27, p53, Bax and multiubiquitinated proteins [6]: dose-dependent accumulation | Expression of CDKN1A, CDKN1B, TP53 and BAX genes [7]: did not affect expression of any of these genes | Cytotoxicity (cell mortality), effect of copper loading [8]: enhanced by copper loading | ROS production, effect of copper loading [9]: Copper-loaded cells produced more ROS | Growth arrest and apoptosis (breast cancer cell lines): induced growth arrest and apoptosis
